From PMC10641814 (Journal of Medicinal Chemistry, 2023)

Legend:
[1] = target: T1, human 5-HT7b (Homo sapiens, UniProt P34969); assay: 5-HT7R binding ([3H]-5-CT), HEK293; conditions: read-out: serotonin 5-HT7 % inhibition at 1 microM
T1 construct: expressed in transfected cells
Experimental: 3. Selectivity screen of PZ-1922
For membrane preparation,
EDTA and 1 mM dithiothreitol.
The composition of the assay buffers was
reader (PerkinElmer, USA).
(§1) The results were expressed as the %
(§2) www.eurofinsdiscovery.com.

[2] = target: T2, α2AR (Homo sapiens, UniProt P08913); assay: Adrenergic α2AR binding ([3H]-RX821002), Eurofins; conditions: read-out: adrenergic alfa2A % inhibition at 1 microM
T2 sequence (P08913 1-465): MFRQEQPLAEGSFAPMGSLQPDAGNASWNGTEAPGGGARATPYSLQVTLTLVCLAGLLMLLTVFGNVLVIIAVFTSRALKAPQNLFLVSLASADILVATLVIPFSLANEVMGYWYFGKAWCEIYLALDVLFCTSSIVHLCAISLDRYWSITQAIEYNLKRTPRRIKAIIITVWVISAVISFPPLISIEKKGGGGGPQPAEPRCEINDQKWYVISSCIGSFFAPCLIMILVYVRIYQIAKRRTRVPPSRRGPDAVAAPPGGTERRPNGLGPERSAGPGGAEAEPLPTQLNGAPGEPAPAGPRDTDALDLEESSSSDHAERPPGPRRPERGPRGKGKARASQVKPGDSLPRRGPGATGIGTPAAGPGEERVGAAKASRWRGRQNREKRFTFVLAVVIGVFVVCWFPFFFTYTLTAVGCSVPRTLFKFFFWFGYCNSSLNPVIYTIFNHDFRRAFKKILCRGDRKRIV
From the text: as §1, §2

[3] = tested on: oAβ25–35-induced memory deficits in rats; assay: oAβ25–35-induced memory deficits in T-maze test in rats; type: in vivo, rat
Experimental: For the AD model, adult male Sprague–Dawley rats (Janvier Lab., France) weighing 260–280 g (8 weeks) at the beginning of the experiments were housed 1 week before experiments in a standard animal facility of the University of Montpellier (CECEMA, registration number E34-172-23) (12/12 h light/dark cycle with lights on at 07:00; 21 ± 1 °C, food and water ad libitum). All experiments, including sacrifices, were performed in conscious rats between 09:00 and 12:00, during the diurnal period of the circadian rhythm. Male has been preferred over female because the latter may present a confounding factor of the estrous cycle, a parameter that needs to be systematically controlled. Animal procedures were conducted in strict adherence to the European Union Directive of 2010 (2010/63/EU). The National French Animal Welfare Committee and the local committee at the University of Montpellier approved all protocols (authorization: CEEA-LR-12160). All efforts were made to minimize the number of animals used, potential pain, suffering, and distress.
As previously detailed,[37],[64] to induce the acute model of AD (oAβ25–35 model), rats were divided into three groups. One group had no surgery (Naive group), a second set of animals received an intracerebroventricular (icv) injection of incubated scrambled peptide (negative control groups—10 μg/rat—Sc), and a third set received an icv injection of oAβ25–35 (AD groups—10 μg/rat—Aβ). The animals were anesthetized with an intraperitoneal (ip) injection of a mixture of ketamine and xylazine (80 and 10 mg/kg b.w., respectively). Scrambled peptide and oAβ25–35 were injected directly into the lateral ventricles at a rate of 2 μL/min using a David-Kopf stereotaxic apparatus (coordinates of injection: AP −1 mm, L ±1.5 mm, DV −3.5 mm).
1—A curative approach: This treatment was started 1 week after the induction of amyloid toxicity (icv injection of oAβ25–35) and consisted of 2 ip injections (1.5 mg/kg per injection) per day for 1 week. On day 14, animals were subjected to a behavioral memory test (T-maze) and sacrificed on day 15 by decapitation.
(§3) 2—A preventive approach: This treatment was started at the same time as the induction of amyloid toxicity and consisted of implanting ip, and during the same anesthetic procedure necessary for the icv injection of oAβ25–35, an osmotic pump (Alzet-EML2, Charles-River, France) which continuously delivered the molecules for 1 week at the dose of 3 mg/kg/day. On day 7, animals were submitted to a behavioral memory test (T-maze) and sacrificed on day 8 by decapitation.
As previously reported, the T-maze test was used to rapidly assess cognitive ability in rats, especially the short-term memory deficits, when performed in two successive sessions.[37],[38],[64],[65] The T-maze consisted of two short arms (A and B), extending from a longer alley (C) and enclosed with high walls. The test involved two trials, separated by 1 h. During the training session, one short arm (B) was closed. Rats were placed at the end of the long alley, allowed to visit the maze for 10 min, and then returned to their home cage. […] The number of visits and time spent in each arm were measured. The results were expressed as the ratio of the time spent in the initially closed novel arm, over the time spent in the previous arm, and as a ratio of the number of entries into the novel arm over the familiar one. […]

[4] = tested on: hippocampus of rats injected with oAβ25–35; assay: Western blot of hippocampal AD biomarkers in oAβ25–35-injected rats; type: in vivo, rat; conditions: oAβ25–35 icv
Experimental: As previously detailed,[37],[64] to induce the acute model of AD (oAβ25–35 model), rats were divided into three groups. […] The animals were anesthetized with an intraperitoneal (ip) injection of a mixture of ketamine and xylazine (80 and 10 mg/kg b.w., respectively). Scrambled peptide and oAβ25–35 were injected directly into the lateral ventricles at a rate of 2 μL/min using a David-Kopf stereotaxic apparatus (coordinates of injection: AP −1 mm, L ±1.5 mm, DV −3.5 mm).
On day 14, animals were subjected to a behavioral memory test (T-maze) and sacrificed on day 15 by decapitation.
as §3
At the time of sacrifice, all hippocampi were dissected out, weighed, and rapidly frozen in liquid nitrogen for Western blot (WB) analysis.
Western blot analyses were performed on the whole hippocampus as previously described.[37] All antibodies used are detailed in Table S3. Briefly, after sacrifice, hippocampi were microdissected, weighed, immediately frozen in liquid nitrogen, and stored at −20 °C. Tissues were sonicated (VibraCell; Sonics & Materials, USA) in a lysis buffer[37] and centrifuged (4 °C). Supernatants were collected, and the protein concentration was measured using a bicinchoninic Acid (BCA) assay (ThermoFisher Scientific, France). […] The membranes were incubated overnight (4 °C) with the primary antibody, washed, and then incubated for 2 h with the appropriate horseradish peroxidase-conjugated secondary antibody. […] The intensity of the immunoreactive signals was quantified using Image-J software (NIH, Bethesda, […], USA). β-Tubulin (β-Tub) was used as a loading control for all experiments.

[5] = 1.5 mg/kg ip twice a day for 7 days
[6] = 3 mg/kg/day osmotic pump 1 week
[7] = curative and preventive approach

T1 sequence (P34969 1-432 limits assumed): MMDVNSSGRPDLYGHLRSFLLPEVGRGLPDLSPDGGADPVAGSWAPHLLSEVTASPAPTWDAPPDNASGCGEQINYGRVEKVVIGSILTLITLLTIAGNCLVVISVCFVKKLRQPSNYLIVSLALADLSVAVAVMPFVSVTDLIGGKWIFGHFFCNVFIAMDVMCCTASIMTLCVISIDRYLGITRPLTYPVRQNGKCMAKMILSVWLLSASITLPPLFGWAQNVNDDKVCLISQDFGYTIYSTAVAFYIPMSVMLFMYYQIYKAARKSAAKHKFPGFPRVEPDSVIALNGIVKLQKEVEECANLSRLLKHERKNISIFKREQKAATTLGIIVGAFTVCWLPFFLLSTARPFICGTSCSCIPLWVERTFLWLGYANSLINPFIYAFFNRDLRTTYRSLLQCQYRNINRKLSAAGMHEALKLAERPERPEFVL

Cl.Clc1cccc(Cn2ccc3c(N4CCNCC4)nc4ccccc4c32)c1 [PZ-1922, 1-(3-Chlorobenzyl)-4-(piperazin-1-yl)-1H-pyrrolo[3,2-c]quinoline Hydrochloride]
inhibition at 1 µM [1]: 2% | inhibition at 1 µM [2]: 22% | effect on oAβ25–35-induced memory deficits in T-maze, curative treatment ([3]; 1.5 mg/kg ip twice a day for 7 days, started 1 week after icv oAβ25–35): effectively reversed the memory deficits | effect on oAβ25–35-induced memory deficits in T-maze, preventive treatment ([3]; 3 mg/kg/day by ip osmotic pump for 1 week, concomitant with icv oAβ25–35): prevented the emergence of cognitive deficits | In vivo effective dose, T maze test in rats after oAB administration, preventive treatment ([3]; preventive treatment): 3 mg/kg | hippocampal Caspase-3 and Pro-caspase-3 expression, curative strategy [4, 5]: decreased expression of Caspase-3 and Pro-caspase-3 | hippocampal PSD-95 and SYN levels, curative treatment [4, 5]: reversed PSD-95 and SYN levels | hippocampal Caspase-3 and Pro-caspase-3 expression, preventive treatment [4, 6]: prevented increased expression of Caspase-3 and Pro-caspase-3 | hippocampal PSD-95 and SYN levels, preventive treatment [4, 6]: reversed PSD-95 and SYN levels | hippocampal GFAP increase [4, 7]: Neither PZ-1922 nor intepirdine impacted the GFAP increase | hippocampal Iba1 level [4, 7]: decreased the Iba1 level regardless of the applied approach
